GI50 data for 16 compounds are collected here from US20240059698A1 (Accutar Biotechnology Inc., priority 2022, published 2024).

Where two headings read alike, the source gives them in different places. A value given as a limit tells only on which side of the number the result lay.

What all share (type): cell-based
The test system of experiment [1] is HCC827-YVMA cells (human ERBB2 exon20 insertion mutant A775_G776ins YVMA). In words: Cell growth inhibition (CellTiter-Glo), HCC827-YVMA. The conditions noted are these: 72 h, read-out: Cell growth inhibition, GI50 (nM) HCC827-YVMA. A digest of the protocol:
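HCC827 cells transduced with lentiviral codon-optimized mutant (ERBB2 A775_G776insYVMA or EGFR V769_D770insASV), endogenous EGFR knocked out by CRISPR, single clone selected. Cells seeded overnight in RPMI/10% FBS, then exposed to serially diluted compounds at 37 °C for 3 days; viability read by CellTiter-Glo luminescence.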

The subject of experiment [2] is HCC827-SVD cells (human EGFR exon 20 insertion mutant D770_N771insSVD). In words: Cell growth inhibition (CellTiter-Glo), HCC827-SVD. The following applies: 72 h, 3 days. A digest of the protocol: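 HCC827 cells with endogenous EGFR knocked out and lentivirally expressing the insertion mutant (single clone) were seeded at 5000 cells/well in RPMI with 10% FBS. After overnight, compounds added; 3 days at 37 °C, then CellTiter-Glo luminescence.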

Experiment [3] concerns HCC827-ASV cells (human EGFR exon 20 insertion mutant V769_D770insASV). In words: Cell growth inhibition (CellTiter-Glo), HCC827-ASV. The following applies: 72 h, read-out: Cell growth inhibition, GI50 (nM) HCC827-ASV. How it is done: Generation of HCC827-SVD, HCC827-ASV, and HCC827-YVMA cell lines. The HCC827-SVD cell line was generated by first transducing HCC827 cells (ATCC) with lentiviral particles expressing codon-optimized human EGFR exon 20 insertion mutant D770_N771insSVD, and then selecting under 5 µg/mL puromycin treatment for a week. The resulting cells were further transduced with lentiviral particles carrying EGFR sgRNA and CAS9 to knockout the endogenous alleles of EGER and then selected under 500 µg/mL hygromycin B treatment for two weeks. The limiting dilution approach was used to subsequently generate the single clone of the HCC827-SVD stable cell line. Endogenous EGFR knockout was confirmed by Sanger sequencing of cell genomic DNA, and expression of exogenous mutant EGFR was verified by Western blot analysis.
HCC827-ASV and HCC827-YVMA cell lines were generated in a similar approach as HCC827-SVD, except that HCC827 cells (ATCC) were first transduced with lentiviral particles expressing codon-optimized human EGFR exon 20 insertion mutant V769_D770insASV and human ERBB2 exon20 insertion mutant A775_G776ins YVMA, respectively.
2. Cell Growth Inhibition for HCC827, HCC827-SVD, HCC827-ASV, HCC827-YVMA, and A431.
HCC827(ATCC), HCC827-SVD, HCC827-ASV, and HCC827-YVMA cells were seeded in 96-well plates at 5000 cells/well in 90 μL of RPMI growth medium containing 10% FBS and 1% Penicillin Streptomycin. A431 (ATCC) cells were seeded in 96-well plates at 5000 cells/well in 90 μL of DMEM growth medium containing 10% FBS and 1% Penicillin Streptomycin. Cells were incubated at 37° C. overnight and then administered with 10 μL 10× test compounds prepared in the growth medium at various concentrations. After administration of the compounds, cells were incubated at 37° C. for 3 days. Before the CellTiter-Glo assay, the plates were equilibrated at room temperature for approximately 30 minutes. 100 ul of CellTiter-Glo reagent (Promega) was added to each well. The plates were then incubated at room temperature for 10 minutes and luminescence was recorded by the EnSight® multimode plate reader (PerkinElmer). Table 7 listed selected compounds in cellular growth assay.
Background: In ATP-based viability assays light output follows the ATP content of the culture.

A further experiment relates to HCC827 cells. In words: Cell growth inhibition (CellTiter-Glo), HCC827. The following applies: Homo sapiens, 72 h, 3 days. A digest of the protocol:
(§1)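 HCC827 cells in RPMI and A431 cells in DMEM (both 10% FBS) were seeded at 5000 cells/well and left overnight. They were then exposed to compound dilutions for 3 days at 37° C. Viability was read by CellTiter-Glo luminescence.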

Another experiment has as its system A431 cells. In words: Cell growth inhibition (CellTiter-Glo), A431. The conditions noted are these: Homo sapiens, A-431, 72 h, 3 days. A digest of the protocol:
as §1

Setting [4] is: HCC827-YVMA cells, 3 days, CellTiter-Glo.
The mark [5] stands for this setting: HCC827-ASV cells, 3 days, CellTiter-Glo.

As a reminder, the GI50 is the concentration at which growth is held to half of that of the control. `C=CC(=O)N1CCC(c2c[nH]c3ncnc(Nc4ccc(OCc5ncc(F)s5)c(Cl)c4)c23)CC1` [Compound 223, 1-[4-[4-[3-chloro-4-[(5-fluorothiazol-2-yl)methoxy]anilino]-7H-pyrrolo[2,3-d]pyrimidin-5-yl]-1-piperidyl]prop-2-en-1-one]: the GI50 in experiment [1] (setting [4]), in experiment [2] and in experiment [3] (setting [5]) was less than 50 nM throughout.

In the case of `C=CC(=O)N1CCC(c2c[nH]c3ncnc(Nc4ccc(OCc5cc6sccc6cn5)c(Cl)c4)c23)CC1` [Compound 224, 1-(4-(4-((3-chloro-4-(thieno[3,2-c]pyridin-6-ylmethoxy)phenyl)amino)-7H-pyrrolo[2,3-d]pyrimidin-5-yl)piperidin-1-yl)prop-2-en-1-one], the GI50 in experiment [1], in experiment [2] and in experiment [3] was less than 50 nM each time.

In the case of `C=CC(=O)N1CCC(c2c[nH]c3ncnc(Nc4cc(Cl)c(OCc5ccccn5)cc4Cl)c23)CC1` [Compound 222, 1-[4-[4-[2,5-dichloro-4-(2-pyridylmethoxy)anilino]-7H-pyrrolo[2,3-d]pyrimidin-5-yl]-1-piperidyl]prop-2-en-1-one], the GI50 in experiment [1] (setting [4]), in experiment [2] and in experiment [3] (setting [5]) was less than 50 nM throughout.

As for `C=CC(=O)N1CCC(c2c[nH]c3ncnc(Nc4ccc5c(cnn5Cc5cccc(F)c5)c4)c23)CC1` [Compound 226, 1-(4-(4-((1-(3-fluorobenzyl)-1H-indazol-5-yl)amino)-7H-pyrrolo[2,3-d]pyrimidin-5-yl)piperidin-1-yl)prop-2-en-1-one], the GI50 in experiment [1] (setting [4]), in experiment [2] and in experiment [3] (setting [5]) was less than 50 nM each time.

In the case of `C=CC(=O)N1CCC(c2c[nH]c3ncnc(Nc4ccc(OCc5csc(C)n5)c(Cl)c4)c23)CC1` [Compound 217, 1-(4-(4-((3-chloro-4-((2-methylthiazol-4-yl)methoxy)phenyl)amino)-7H-pyrrolo[2,3-d]pyrimidin-5-yl)piperidin-1-yl)prop-2-en-1-one], the GI50 in experiment [1] (setting [4]), in experiment [2] and in experiment [3] (setting [5]) was less than 50 nM in each case.

Take `C=CC(=O)N1CCC(c2c[nH]c3ncnc(Nc4ccc(O[C@H](C)c5cscn5)c(Cl)c4)c23)CC1` [Compound 218, (R)-1-(4-(4-((3-chloro-4-(1-(thiazol-4-yl)ethoxy)phenyl)amino)-7H-pyrrolo[2,3-d]pyrimidin-5-yl)piperidin-1-yl)prop-2-en-1-one]: the GI50 in experiment [1] (setting [4]), in experiment [2] and in experiment [3] (setting [5]) was less than 50 nM in each case.

For `[2H]C([2H])(Oc1ccc(Nc2ncnc3[nH]cc(C4CCN(C(=O)C=C)CC4)c23)cc1Cl)c1ccccn1` [Compound 227, 1-(4-(4-((3-chloro-4-(pyridin-2-ylmethoxy-d2)phenyl)amino)-7H-pyrrolo[2,3-d]pyrimidin-5-yl)piperidin-1-yl)prop-2-en-1-one], the GI50 in experiment [1] (setting [4]), in experiment [2] and in experiment [3] (setting [5]) was less than 50 nM throughout.

Turning to `C=CC(=O)N1CC(Nc2n[nH]c3ncnc(Nc4ccc(OCc5ccccn5)c(Cl)c4)c23)C1` [Compound 168, 1-(3-((4-((3-chloro-4-(pyridin-2-ylmethoxy)phenyl)amino)-1H-pyrazolo[3,4-d]pyrimidin-3-yl)amino)azetidin-1-yl)prop-2-en-1-one], the GI50 is more than 1000 nM in experiment [1] (setting [4]), 200 to 1000 nM with HCC827 cells, more than 1000 nM in the experiment on A431 cells and more than 1000 nM in experiment [2].

As for `C=CC(=O)N1CC(c2c[nH]c3ncnc(Nc4ccc(OCc5ccccn5)c(Cl)c4)c23)C1` [Compound 137, 1-(3-(4-((3-chloro-4-(pyridin-2-ylmethoxy)phenyl)amino)-7H-pyrrolo[2,3-d]pyrimidin-5-yl)azetidin-1-yl)prop-2-en-1-one], the GI50 in experiment [1] (setting [4]) was less than 50 nM; with HCC827 cells, 50 to 200 nM; in the experiment on A431 cells, more than 1000 nM; in experiment [2], less than 50 nM.

Turning to `C=CC(=O)N1CCC(c2c[nH]c3ncnc(Nc4ccc(Oc5ccnc(N6CCC[C@@H](OC)C6)c5)cc4F)c23)CC1` [Compound 147, (R)-1-(4-(4-((2-fluoro-4-((2-(3-methoxypiperidin-1-yl)pyridin-4-yl)oxy)phenyl)amino)-7H-pyrrolo[2,3-d]pyrimidin-5-yl)piperidin-1-yl)prop-2-en-1-one], the GI50 in experiment [1] (setting [4]) was 50 to 200 nM; with HCC827 cells, more than 1000 nM; in the experiment on A431 cells, more than 1000 nM; in experiment [2], 50 to 200 nM.

For the compound `C=CC(=O)N1CCC(c2c[nH]c3ncnc(Nc4ccc(OCc5cnccn5)c(Cl)c4)c23)CC1` [Compound 116, 1-[4-[4-[3-chloro-4-(pyrazin-2-ylmethoxy)anilino]-7H-pyrrolo[2,3-d]pyrimidin-5-yl]-1-piperidyl]prop-2-en-1-one], the GI50 in experiment [1] (setting [4]) was less than 50 nM; in the experiment on HCC827 cells, less than 50 nM; in the experiment on A431 cells it was 50 to 200 nM; in experiment [2] it was less than 50 nM.

As for `C=CC(=O)N1CCC(c2c[nH]c3ncnc(Nc4ccc(OCc5cscn5)c(Cl)c4)c23)CC1` [Compound 119, 1-[4-[4-[3-chloro-4-(thiazol-4-ylmethoxy)anilino]-7H-pyrrolo[2,3-d]pyrimidin-5-yl]-1-piperidyl]prop-2-en-1-one], the GI50 in experiment [1] (setting [4]) was less than 50 nM; in the experiment with HCC827 cells it was less than 50 nM; with A431 cells, 50 to 200 nM; in experiment [2] it was less than 50 nM.

As for `C=CC(=O)N1CCC(c2c[nH]c3ncnc(Nc4ccc(OCc5ccccn5)c(F)c4)c23)CC1` [Compound 111, 1-(4-(4-((3-fluoro-4-(pyridin-2-ylmethoxy)phenyl)amino)-7H-pyrrolo[2,3-d]pyrimidin-5-yl)piperidin-1-yl)prop-2-en-1-one], the 50% growth inhibitory concentration (GI50) is less than 50 nM in experiment [1] (setting [4]), less than 50 nM in the experiment on HCC827 cells, 50 to 200 nM in the experiment with A431 cells and less than 50 nM in experiment [2].

As for `C=CC(=O)N1CCC(c2c[nH]c3ncnc(Nc4ccc(OCc5cc(C(F)(F)F)ccn5)c(Cl)c4)c23)CC1` [Compound 113, 1-(4-(4-((3-chloro-4-((4-(trifluoromethyl)pyridin-2-yl)methoxy)phenyl)amino)-7H-pyrrolo[2,3-d]pyrimidin-5-yl)piperidin-1-yl)prop-2-en-1-one], the 50% growth inhibitory concentration (GI50) (in experiment [1] (setting [4]); with HCC827 cells; in the experiment on A431 cells; in experiment [2]) was less than 50 nM throughout.

In the case of `C=CC(=O)N1CCC(c2c[nH]c3ncnc(Nc4ccc(OCc5cc(C)ccn5)c(Cl)c4)c23)CC1` [Compound 110, 1-(4-(4-((3-chloro-4-((4-methylpyridin-2-yl)methoxy)phenyl)amino)-7H-pyrrolo[2,3-d]pyrimidin-5-yl)piperidin-1-yl)prop-2-en-1-one], the GI50 in experiment [1] (setting [4]) is less than 50 nM; with HCC827 cells it was less than 50 nM; in the experiment on A431 cells, 200 to 1000 nM; in experiment [2], less than 50 nM.

Regarding `C=CC(=O)N1CCC(c2n[nH]c3ncnc(Nc4ccc(Oc5ccnc(N6CCO[C@H](C)C6)c5)cc4F)c23)CC1` [Compound 172, (R)-1-(4-(4-((2-fluoro-4-((2-(2-methylmorpholino)pyridin-4-yl)oxy)phenyl)amino)-1H-pyrazolo[3,4-d]pyrimidin-3-yl)piperidin-1-yl)prop-2-en-1-one], the GI50 was 50 to 200 nM in experiment [1] (setting [4]), 200 to 1000 nM in the experiment with HCC827 cells, more than 1000 nM with A431 cells and 50 to 200 nM in experiment [2].
